The text below walks through data of PubChem BioAssay (NCI).

Experiment in all cases: NCI-60 cell line screen, 48 h
Assay [1] concerns NCI-H226 lung.
For assay [2], the system named is NCI-H460 lung.
In assay [3] the test system is M14 melanoma.
Assay [4] has as its system CAKI-1 renal.
Assay [5] relates to UO-31 renal.
The subject of assay [6] is IGROV1 ovarian.
The test system of assay [7] is K-562 leukemia.
In assay [8] the test system is RPMI-8226 leukemia.
Assay [9] deals with SK-OV-3 ovarian.

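How tested: cells in 96-well plates exposed to compound for 48 hours at five concentrations. TGI: concentration producing complete growth inhibition.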 Bounds are passed on as bounds.

For the compound `CN(C)C(=S)/N=c1\ss/c(=N\S(=O)(=O)c2ccccc2)n1N(C)C`, the TGI in assay [1], in assay [2], in assay [3], in [4], in assay [5] and in assay [6] was over 100 µM each time. Besides, the TGI in assay [7], in assay [8] and in assay [9] was over 100 µM throughout.
For the compound `COC1OC2COC(c3ccccc3)OC2C(O)C1Br` (stereo not drawn), the TGI in [2], in assay [3], in [4], in assay [6], in [7] and in assay [8] was over 100 µM each time.
Consider `COc1ccc2nc(NC(=O)C(=O)C(C#N)c3ccc(Cl)c(Cl)c3)sc2c1` (stereo not drawn), for which the TGI in assay [1], in assay [2], in assay [3], in assay [4], in [5] and in [6] was over 100 µM in each case. Further, the TGI in assay [7], in assay [8] and in assay [9] was over 100 µM in each case.
As to `O=C(O)CCSC(=O)Nc1ccc(N=Nc2ccccc2)cc1`, the TGI in assay [1], in [2], in assay [3], in assay [4], in assay [5] and in assay [6] was over 100 µM throughout. The TGI in assay [7], in assay [8] and in assay [9] was over 100 µM in each case.
In the case of `CC12Oc3ccc4ccccc4c3CC1Cc1c(ccc3ccccc13)O2` (stereo not drawn), the TGI in assay [1], in [2], in assay [3], in assay [4] and in [5] was over 100 µM in each case.
In the case of `Cc1cccc(C(C)(C)C)c1NC(=O)CC1Sc2ccccc2NC1=O` (stereo not drawn), the TGI in assay [1], in assay [2], in assay [3], in [4], in assay [5] and in assay [6] was over 100 µM in each case. Besides, the TGI in [7] is 73.5 µM; in [8], 46 µM; in [9], over 100 µM.
As to `Nc1n[nH]c(CCc2nc(N)n[nH]2)n1`, the TGI in assay [1], in assay [2], in assay [3], in assay [4], in assay [5] and in [6] was over 100 µM each time. Moreover, the TGI in assay [7], in assay [8] and in [9] was over 100 µM in each case.
As to `O=C1C=CC(CC(=O)c2ccc3ccccc3c2)O1` (stereo not drawn), the TGI in assay [2] was 55.2 µM; in assay [3], 93.9 µM; in assay [4] it was over 100 µM; in [5], 39.2 µM; in [6], 65.2 µM; in [7], over 100 µM. This compound also came in with a TGI in assay [9] of over 100 µM.
Turning to `Nn1c(N=Nc2c(O)[nH]c3c(Cl)cc(Cl)cc23)n[nH]c1=S`, the TGI in assay [1], in assay [2], in [3], in assay [4], in assay [5] and in assay [6] was over 100 µM throughout. Further, the TGI in [7], in assay [8] and in assay [9] was over 100 µM throughout.
For `CC1=CC(=O)N(c2c(C)cccc2Cl)C(C)N1` (stereo not drawn), the TGI in [1], in [2], in assay [3], in assay [4], in assay [5] and in assay [6] was over 100 µM throughout. Besides, the TGI in [7] and in assay [9] was over 100 µM throughout.
As for `O=C(O)C1=C(C(=O)Nc2ccc(NC(=O)C3=C(C(=O)O)C4C=CC3C4)cc2)C2C=CC1C2`, the TGI in assay [2], in assay [3], in assay [4], in assay [5], in [6] and in assay [7] was over 100 µM each time. Moreover, the TGI in assay [8] and in [9] was over 100 µM each time.
With `O=C(O)c1ccccc1NC(=O)C1CCCCC1`, the TGI in assay [1], in assay [2], in [3], in assay [5], in [6] and in assay [7] was over 100 µM throughout. In addition, the TGI in assay [8] and in [9] was over 100 µM in each case.
Turning to `O=C1C2Nc3ccccc3SC2C(=O)N1c1ccccc1C(F)(F)F` (stereo not drawn), the TGI was over 100 µM in assay [1]; over 100 µM in assay [2]; 75.8 µM in [3]; over 100 µM in assay [4]; over 100 µM in [5]; over 100 µM in assay [6]. In addition, the TGI in [7], in assay [8] and in assay [9] was over 100 µM each time.
Regarding `O=C(O)/C=C/C(=O)N1C/C(=C\c2ccccc2)C(=O)/C(=C/c2ccccc2)C1`, the TGI in assay [1] was 31.3 µM; in [2], 30.8 µM; in [3], 11.9 µM; in assay [4] it was 31.1 µM; in [5], 24.9 µM; in assay [6], 31.9 µM. For the same compound, the TGI in [7] stood at 7.86 µM; in assay [8], 6.22 µM; in assay [9], 42.7 µM.
For the compound `N#CC1=C(Cl)NC(Cl)=C(C#N)C1c1c(Cl)cccc1Cl`, the TGI in assay [1] was over 100 µM; in [2], 38.3 µM; in assay [3], over 100 µM; in assay [4], over 100 µM; in assay [5] it was over 100 µM; in assay [6], over 100 µM. Also, the TGI in assay [7] came to 46.9 µM; in assay [8] it was 46.4 µM; in [9] it was 88.8 µM.
For the compound `c1ccc2c(c1)C1=NCCN1c1ccccc1-2`, the TGI amounted to 4 µM in assay [2]; 13.3 µM in assay [3]; 9.05 µM in assay [4]; 18.4 µM in assay [5]; 17.2 µM in assay [6]; 6.97 µM in assay [8]. The TGI in assay [9] stood at 29.9 µM.
For `O=C(Nc1ccn(CCI)c(=O)n1)c1ccccc1`, the TGI in assay [1], in [2], in assay [3], in assay [4], in [5] and in assay [6] was over 100 µM each time. The TGI in assay [7], in assay [8] and in assay [9] was over 100 µM throughout.
With `Cc1ccccc1-n1c(C)nc(-c2ccccc2)cc1=O`, the TGI in [1], in assay [2], in assay [3], in [4], in assay [5] and in assay [6] was over 100 µM each time. The TGI in assay [7] and in assay [9] was over 100 µM each time.
For the compound `CCCCCCC(/C=N/O)C(C)(O)CCC` (stereo not drawn), the TGI in assay [1], in assay [2], in [3], in assay [4], in [5] and in assay [6] was over 100 µM each time. The TGI in [7] and in assay [8] was over 100 µM throughout.
Consider `Cc1cccc2nc3cccc(C(=O)NCCN(C)C)c3nc12`, for which the TGI was 4.17 µM in [1]; 16.5 µM in assay [2]; 2.36 µM in [3]; 15.8 µM in [4]; 1.56 µM in assay [5]; 15.5 µM in assay [6]. Also, the figures for the TGI in assay [7] and in assay [9] were 10.9 µM and 6.74 µM, respectively.
Consider `COC(=O)CCC(=O)NC1C2CC3CC(C2)CC1C3` (stereo not drawn), for which the TGI in [2], in [3], in assay [4], in [5], in assay [6] and in assay [7] was over 100 µM throughout. The TGI in assay [8] and in assay [9] was over 100 µM throughout.
On to `O=[N+]([O-])c1ccc(Cl)cc1C1SCc2nc3ccccc3n21` (stereo not drawn), for which the TGI in [2] was 23.4 µM; in assay [3], over 100 µM; in assay [4], over 100 µM; in assay [5] it was over 100 µM; in [6] it was over 100 µM; in assay [7], over 100 µM. For the same compound, the TGI in assay [8] and in assay [9] was over 100 µM each time.
Consider `CCC(Oc1ccc(OC)c2ccccc(=O)c12)C(=O)O` (stereo not drawn), for which the TGI in assay [1], in assay [2], in assay [3], in assay [5], in assay [6] and in [7] was over 100 µM each time. The TGI in assay [8] and in assay [9] was over 100 µM throughout.
As for `O=C(/C=C1/Nc2ccc([N+](=O)[O-])cc2NC1O)c1cccc([N+](=O)[O-])c1` (stereo not drawn), the TGI in assay [1], in assay [2], in [3], in assay [4], in assay [5] and in [6] was over 100 µM each time. Moreover, the TGI in assay [7] was over 100 µM; in assay [9], 57.2 µM.
Turning to `CN1CC(=O)N(C)c2nc[nH]c2C1=O`, the TGI in assay [1], in assay [2], in assay [3], in assay [5], in assay [6] and in [7] was over 100 µM throughout. The TGI in assay [8] and in [9] was over 100 µM in each case.
